From patent EP0943606A1, “BENZENESULFONAMIDE DERIVATIVES AND DRUGS CONTAINING THE SAME” (HOKURIKU SEIYAKU CO., LTD., priority 1996, dated 1998)

Legend:
[1] = molecular target: T1, thromboxane A2 / prostaglandin H2 receptor (Cavia porcellus, UniProt A0A286Y4I8); experiment: Thromboxane A2 antagonistic effect (isolated trachea, U-46619 concentration-response curves, Schild); parameters: species or system male Hartley guinea-pigs; conditions: isolated guinea-pig trachea, contraction by U-46619, test compound treatment 5 minutes, indomethacin 3 × 10^-6M, method of Schild
T1 construct: tracheas were isolated from male Hartley guinea-pigs, and spiral specimens of approximately 2 cm length were prepared; from tissue; host or cells: isolated guinea-pig trachea (spiral strips)
T1 sequence (A0A286Y4I8 1-347): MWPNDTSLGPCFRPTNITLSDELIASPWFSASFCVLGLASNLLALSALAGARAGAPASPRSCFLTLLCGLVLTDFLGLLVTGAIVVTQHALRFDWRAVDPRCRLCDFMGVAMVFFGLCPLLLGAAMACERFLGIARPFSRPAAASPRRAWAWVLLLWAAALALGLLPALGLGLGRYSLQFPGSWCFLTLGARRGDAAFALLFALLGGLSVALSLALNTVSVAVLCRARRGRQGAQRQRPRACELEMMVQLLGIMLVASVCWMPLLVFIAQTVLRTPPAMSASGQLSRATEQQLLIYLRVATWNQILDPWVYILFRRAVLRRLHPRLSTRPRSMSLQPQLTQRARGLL
Experimental: According to an ordinary method, tracheas were isolated from male Hartley guinea-pigs, and spiral specimens of approximately 2 cm length were prepared. These specimens were suspended in organ baths that contained Krebs-Henseleit solution at 37°C under a resting tension of 1.5 g, and the changes in isometric tension were recorded. The first concentration-response curves were obtained by cumulative applications of 1 × 10^-9 to 3 × 10^-7M of U-46619 (Cayman, thromboxane A2 / prostaglandin H2 receptor agonist) in the organ baths. After treatments with test compounds at adequate concentrations for 5 minutes, the second concentration-response curves were obtained in the same manner as the first applications. pKB values were calculated using these two concentration-response curves according to the method of Schild [Pharmacological Review, Vol. 9, 242 (1957)]. Indomethacin (3 × 10^-6M, Sigma) was added beforehand to the organ bath to eliminate possible affections by thromboxane A2 and prostaglandin produced endogenously [Japan J. Pharmacol., Vol. 60, 227 (1992)].

[2] = tested on: bronchoconstriction induced by U-46619; experiment: Inhibitory effect on bronchoconstriction induced by U-46619 (Konzett-Roessler); assay type: in vivo, Male Hartley guinea-pigs; conditions: Cavia porcellus; 0.3 mg/kg orally, 2 hours before U-46619 (4 µg/kg, cervical vein), anesthetized guinea-pigs, compared to control group; read-out: Inhibition rate (%)
Experimental: Airway resistance was evaluated according to the method of Konzett-Roessler [Naunyn-Schmiedberg's Arch. Exp. Path. Pharmak., Vol. 195, 71 (1940)]. Male Hartley guinea-pigs (about 400g wt.) were anesthetized with urethane (1.5g/kg, i.p.) and ventilated by an artificial respirator (Model 683; Harvard). At the same time, overflowed air volume above the pressure of about 12cm H2O was measured by using a sensor (Model 7020; Ugo Basile) and the value was used as an index of bronchoconstriction. 0.3 mg/kg (5 ml/kg) of test compounds suspended in 5% gum Arabic was administered orally to the guinea-pigs fasted beforehand for 24 hours. After 2 hours, U-46619 (4 µg/kg; Cayman) was administered through the cervical vein, and then maximal response was measured. Inhibitory rates compared to the control group were calculated based on the response rate normalized by the complete closure as 100%. […]

leukotriene D4 = molecular target: T2, leukotriene D4 (Cavia porcellus, UniProt Q2NNR5); experiment: Leukotriene D4 antagonistic effect (isolated trachea, leukotriene D4 concentration-response curves, Schild); parameters: species or system male Hartley guinea-pigs; conditions: isolated guinea-pig trachea, contraction by leukotriene D4, test compound treatment 30 minutes, indomethacin 1 × 10^-6M, method of Schild
T2 construct: tracheas were isolated from male Hartley guinea-pigs, and spiral specimens of approximately 2 cm length were prepared; from tissue; host or cells: isolated guinea-pig trachea (spiral strips)
T2 sequence (Q2NNR5 1-340): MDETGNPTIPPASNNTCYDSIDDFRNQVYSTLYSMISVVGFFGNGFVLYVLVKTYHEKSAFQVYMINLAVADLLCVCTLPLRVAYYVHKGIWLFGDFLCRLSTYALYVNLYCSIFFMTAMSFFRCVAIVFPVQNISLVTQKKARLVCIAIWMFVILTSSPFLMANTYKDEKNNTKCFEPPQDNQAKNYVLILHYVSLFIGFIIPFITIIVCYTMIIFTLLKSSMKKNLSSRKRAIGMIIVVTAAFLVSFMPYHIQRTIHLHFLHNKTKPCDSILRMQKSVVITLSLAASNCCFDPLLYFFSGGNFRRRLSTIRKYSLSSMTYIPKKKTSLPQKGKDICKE
Experimental: According to an ordinary method, tracheas were isolated from male Hartley guinea-pigs, and spiral specimens of approximately 2 cm length were prepared. These specimens were suspended isotonically in organ baths that contained Krebs-Henseleit solution at 37°C under a resting tension of 0.5g. After contractions with acetylcholine (1 × 10^-5M; Ovisot for injection, Daiichi Seiyaku), and the first concentration-response curves were obtained by cumulative applications of 10^-10 to 10^-8M of leukotriene D4 (ULTRA FINE) in the organ baths. After treatments with test compounds at adequate concentrations for 30 minutes, the second concentration-response curves were obtained in the same manner as the first applications. pKB values were calculated using these two concentration-response curves according to the method of Schild [Pharmacological Review, Vol. 9, 242 (1957)]. Indomethacin (1 × 10^-6M, Sigma) was added beforehand to the organ bath to eliminate possible affections by thromboxane A2 and prostaglandin produced by stimulus of leukotriene D4 [Japan J. Pharmacol., Vol. 60, 227 (1992)]. […]

[3] = tested on: bronchoconstriction induced by leukotriene D4; experiment: Inhibitory effect on bronchoconstriction induced by leukotriene D4 (Konzett-Roessler); assay type: in vivo, Male Hartley guinea-pigs; conditions: Cavia porcellus; oral administration 2 hours before leukotriene D4 (1 µg/kg, cervical vein), anesthetized guinea-pigs, indomethacin and propranolol pretreated
Experimental: Airway resistance was evaluated according to the method of Konzett-Roessler [Naunyn-Schmiedberg's Arch. Exp. Path. Pharmak., Vol. 195, 71 (1940)]. Male Hartley guinea-pigs fasted beforehand for 24 hours were anesthetized with urethane, and then overflowed air volume was measured under artificial ventilation as an index of bronchoconstriction. Various doses of test compounds suspended in 5% gum Arabic were administered orally, and after 2 hours, leukotriene D4 (1 µg/kg; ULTRA FINE) was administered through the cervical vein. Then, values at 2 minutes were measured when maximum responses were obtained. Inhibitory rates compared to the control group were calculated based on the response rate normalized by the overflowed volume at complete closure as 100% bronchoconstriction rate, and the 50% inhibitory doses (ED50 values) were calculated using dose-inhibitory rate curves. Indomethacin (2mg/kg, i.v.) and propranolol (1mg/kg, i.v.) were administered at 10 minutes and 5 minutes before the administration of leukotriene D4, respectively. […]

human liver microsomes = experiment: In vitro metabolism test; assay type: in vitro ADME; conditions: 0.4mg protein/ml human liver microsomes, 0.02 mM test compound, NADPH-generating system, 37°C for 30 minutes, HPLC
Experimental: 0.05 mM EDTA-0.1M phosphate buffer (pH 7.4), distilled water, 0.4mg protein/ml human liver microsomes and 0.02 mM test compound were mixed in a test tube under ice-cooling. After the mixture was shaken at 37°C for 2 minutes beforehand, the mixture was added with a ready-mix of NADPH-generating system and then shaken at 37°C for 30 minutes. After the incubation, the reaction was stopped by cooling with ice. The mixture was added with acetonitrile and well mixted, and then centrifuged at 3000 rpm for 10 minutes. The resulting supernatant was subjected to HPLC measurement, and the residual rate of test compound was calculated from the ratio of a peak area of an unchanged compound in the reaction sample in comparison with a non-reaction mixture. Preparations of reagents and reaction mixtures were carried out by referring to Shin Seikagaku Koza, Vol. 5: Biological oxidation and drug metabolism edited by The Japanese Biochemical Society. […]

Kb [1] [nM] | Kb (leukotriene D4) [nM] | Residual rate (%) (human liver microsomes) | Compound | inhibition in vivo at 0.3 mg/kg [2] [%] | ED50 [3] [mg/kg]
7.94 | 100 | 78 | O=C(O)CCCc1ccc(C(CCC(F)(F)C(F)(F)C(F)(F)C(F)(F)F)NS(=O)(=O)c2ccc(F)cc2)s1 (centres unmarked) [Example 179, 4-[5-[4,4,5,5,6,6,7,7,7-Nonafluoro-1-(4-fluorophenylsulfonylamino)heptyl]-2-thienyl]butyric Acid] | 93 | 0.17
0.398 | 251 | 72 | O=C(O)CCCc1ccc(C(CCCC(F)(F)C(F)(F)F)NS(=O)(=O)c2ccc(Cl)cc2)s1 (centres unmarked) [Example 162, 4-[5-[1-(4-Chlorophenylsulfonylamino)-5,5,6,6,6-pentafluorohexyl]-2-thienyl]butyric Acid] | 85 | 1.3
6.31 | 398 | 87 | O=C(O)CCCc1ccc(C(CCCC(F)(F)C(F)(F)C(F)(F)F)NS(=O)(=O)c2ccc(Cl)cc2)s1 (centres unmarked) [Example 177, 4-[5-[1-(4-Chlorophenylsulfonylamino)-5,5,6,6,7,7,7-heptafluoroheptyl]-2-thienyl]butyric Acid] | 93 | 0.69
1.26 | 251 | 50 | CC(C)CCCC(NS(=O)(=O)c1ccc(Cl)cc1)c1ccc(CCCC(=O)O)cc1 (centres unmarked) [Reference compound 2, 4-[4-[1-(4-chlorophenylsulfonylamino)-5-methylhexyl]phenyl]butyric acid, reference compound] | 81 | 9.2
3.16 | 126 | 86 | O=C(O)CCCc1ccc(C(CCC(F)(F)C(F)(F)C(F)(F)F)NS(=O)(=O)c2ccc(F)cc2)s1 (centres unmarked) [Example 176, 4-[5-[4,4,5,5,6,6,6-Heptafluoro-1-(4-fluorophenylsulfonylamino)hexyl]-2-thienyl]butyric Acid] | 78 | 0.14
12.6 | 794 | 93 | O=C(O)CCCc1ccc(C(CCCC(F)(F)C(F)(F)C(F)(F)F)NS(=O)(=O)c2ccc(F)cc2)cc1 (centres unmarked) [Example 202, 4-[4-[5,5,6,6,7,7,7-Heptafluoro-1-(4-fluorophenylsulfonylamino)heptyl]phenyl]butyric Acid] | 85 | 0.97

The next lines start with the compound.

Compound | Kb [1] [nM] | Kb (leukotriene D4) [nM] | Residual rate (%) (human liver microsomes) | inhibition in vivo at 0.3 mg/kg [2] [%] | ED50 [3] [mg/kg]
O=C(O)CCCc1ccc(C(CCC(F)(F)C(F)(F)C(F)(F)F)NS(=O)(=O)c2ccc(F)cc2)cc1 (centres unmarked) [Example 200, 4-[4-[4,4,5,5,6,6,6-Heptafluoro-1-(4-fluorophenylsulfonylamino)hexyl]phenyl]butyric Acid] | 10 | 251 | 83 | 82 | 0.21
O=C(O)CCCc1ccc(C(CCCC(F)(F)C(F)(F)F)NS(=O)(=O)c2ccc(F)cc2)s1 (centres unmarked) [Example 163, 4-[5-[5,5,6,6,6-Pentafluoro-1-(4-fluorophenylsulfonylamino)hexyl]-2-thienyl]butyric Acid] | 0.794 | 398 | 87 | 92 | 0.78
O=C(O)CCCc1ccc(C(CCCC(F)(F)C(F)(F)F)NS(=O)(=O)c2ccc(F)cc2)cc1 (centres unmarked) [Example 189, 4-[4-[5,5,6,6,6-Pentafluoro-1-(4-fluorophenylsulfonylamino)hexyl]phenyl]butyric Acid] | 2.51 | 251 | 88 | 71 | 0.92
O=C(O)CCCc1ccc(C(CCCC(F)(C(F)(F)F)C(F)(F)F)NS(=O)(=O)c2ccc(F)cc2)s1 (centres unmarked) [Example 183, 4-[5-[5,6,6.6-Tetrafluoro-5-trifluoromethyl-1-(4-fluorophenylsulfonylamino)hexyl]-2-thienyl]butyric Acid] | 2 | 398 | 78 | 89 | 1.1
O=C(O)CCCc1ccc(C(CCCC(F)(F)C(F)(F)F)NS(=O)(=O)c2ccc(Cl)cc2)cc1 (centres unmarked) [Example 188, 4-[4-[1-(4-Chlorophenylsulfonylamino)-5,5,6,6,6-pentafluorohexyl]phenyl]butyric Acid] | 0.794 | 200 | 74 | 88 | 1.6
O=C(O)CCCc1ccc(C(CCCC(F)(F)C(F)(F)C(F)(F)F)NS(=O)(=O)c2ccc(F)cc2)s1 (centres unmarked) [Example 178, 4-[5-[5,5,6,6,7,7,7-Heptafluoro-1-(4-fluorophenylsulfonylamino)heptyl]-2-thienyl]butyric Acid] | 3.16 | 398 | 84 | 89 | 0.67
O=C(O)CCCc1ccc(C(CCCCCC(F)(F)F)NS(=O)(=O)c2ccc(F)cc2)s1 (centres unmarked) [Example 172, 4-[5-[7,7,7-Trifluoro-1-(4-fluorophenylsulfonylamino)heptyl]-2-thienyl]butyric Acid] | 0.398 | 251 | 84 | 73 | 2.4
